Patent US9023865B2, “Compounds that are ERK inhibitors” (Merck Sharp & Dohme Corp., priority 2011, dated 2015)
pIC50: −log10 of the molar value. Like-named read-outs stand apart in the source and are kept apart here.

Target: Active Human ERK2 (hERK2) (Homo sapiens (Human), UniProt P28482)
Assay: Active Human ERK2 (hERK2) Activity Assay (IMAP-FP)
Assay type: biochemical
In short: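 Phosphorylation by activated human ERK2 (0.5 nM) at 30 μM ATP, peptide substrate 900 nM unlabeled with 80 nM labeled, proceeds 60 min. IMAP beads stop the reaction; after 60 min equilibration, product is measured by fluorescence polarization.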

[1] = phosphorylated active hERK2, 30 μM ATP, average, read-out: ERK 2 Human average IC50
[2] = read-out: AERK2 IC50 (Active human ERK2 Activity Assay)

Sequence of Active Human ERK2 (hERK2) (P28482 whole entry): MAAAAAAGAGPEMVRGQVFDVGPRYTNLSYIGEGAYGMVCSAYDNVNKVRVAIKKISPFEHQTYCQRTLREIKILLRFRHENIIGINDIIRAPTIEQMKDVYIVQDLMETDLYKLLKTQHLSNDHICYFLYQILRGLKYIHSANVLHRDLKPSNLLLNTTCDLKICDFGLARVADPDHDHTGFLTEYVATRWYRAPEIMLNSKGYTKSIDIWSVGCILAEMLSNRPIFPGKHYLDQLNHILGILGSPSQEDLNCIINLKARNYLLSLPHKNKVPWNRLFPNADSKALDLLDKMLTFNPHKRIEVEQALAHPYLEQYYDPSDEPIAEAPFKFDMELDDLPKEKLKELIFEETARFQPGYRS

Cc1cc(-c2n[nH]c3c(Br)c(NC(=O)N[C@H](C)c4ccccc4)ncc23)ccn1 [Example 79, 1-[7-bromo-3-(2-methylpyridin-4-yl)-1H-pyrazolo[4,3-c]pyridin-6-yl]-3-[(1R)-1-phenylethyl]urea]
pIC50 [1]: 7.46

Cc1cc(-c2n[nH]c3cc(NC(=O)N[C@@H]4CCCc5ncccc54)ncc23)ccn1 [Example 261]
pIC50 [1]: 8.83

Cc1cc(-c2n[nH]c3cc(NC(=O)NCc4c(C)cc(Cl)cc4Cl)ncc23)ccn1 [Example 514]
pIC50 [1]: 8.54

C[C@@H](NC(=O)Nc1cc2[nH]nc(-c3ccnc(N4CCOCC4)c3)c2cn1)c1ccc(F)cc1 [Example 281]
pIC50 [1]: 8.72

Cc1cc(-c2n[nH]c3cc(NC(=O)NC(C)c4nnco4)ncc23)ccn1 (stereo not shown) [Example 556]
pIC50 [1]: 6.63

Cc1cc(-c2n[nH]c3cc(NC(=O)NCc4ncc(F)cc4Cl)ncc23)ccn1 [Example 517]
pIC50 [1]: 9.12

CCOCCNC(=O)Nc1cc2[nH]nc(-c3ccnc(C)c3)c2cn1 [Example 617]
pIC50 [1]: 8.97

COC[C@@H](NC(=O)Nc1cc2[nH]nc(C3=NOC(C)C3)c2cn1)c1ccccc1 (stereo partly shown) [Example 686]
pIC50 [1]: 7.62

CO[C@H]1CN(C)C[C@@H]1NC(=O)Nc1cc2[nH]nc(-c3ccc(F)cc3)c2cn1 [Example 317]
pIC50 [1]: 8.95

Cc1cc(-c2n[nH]c3cc(NC(=O)N[C@@H]4C[C@H]4c4ccccc4)ncc23)ccn1 [Example 583]
pIC50 [1]: 9.04

COCCNC(=O)Nc1cc2[nH]nc(-c3ccnc(C)c3)c2cn1 [Example 40, 1-(2-methoxyethyl)-3-[3-(2-methylpyridin-4-yl)-1H-pyrazolo[4,3-c]pyridin-6-yl]urea]
pIC50 [1]: 8.54

Cc1cc(-c2n[nH]c3cc(NC(=O)NCc4nncs4)ncc23)ccn1 [Example 438]
pIC50 [1]: 8.18

CSC1CN(C(=O)c2n[nH]c3cc(NC(=O)N[C@H](C)c4ccccc4)ncc23)C1 [Example 118]
pIC50 [1]: 6.30

Cc1cc(-c2n[nH]c3cc(NC(=O)NCC4COC4)ncc23)ccn1 [Example 588]
pIC50 [1]: 7.51

Cc1cc(-c2n[nH]c3cc(NC(=O)N[C@@H](CO)c4cccc5cc[nH]c45)ncc23)ccn1 [Example 363]
pIC50 [1]: 7.59

Cc1cc(-c2n[nH]c3cc(NC(=O)NCc4c(F)cccc4F)ncc23)ccn1 [Example 52, 1-(2,6-difluorobenzyl)-3-[3-(2-methylpyridin-4-yl)-1H-pyrazolo[4,3-c]pyridin-6-yl]urea]
pIC50 [1]: 9.18 | pIC50 [2]: 8.77 to 9.70

Cc1cc(-c2n[nH]c3cc(NC(=O)NCc4csc5ccc(Cl)cc45)ncc23)ccn1 [Example 488]
pIC50 [1]: 8.23

CCCCNC(=O)Nc1cc2[nH]nc(C3CC3)c2cn1 [Example 156]
pIC50 [1]: 7.37

Cc1cc(-c2n[nH]c3cc(NC(=O)NCc4ccc(C(F)(F)F)cc4)ncc23)ccn1 [Example 54, 1-[3-(2-methylpyridin-4-yl)-1H-pyrazolo[4,3-c]pyridin-6-yl]-3-[4-(trifluoromethyl)-benzyl]urea]
pIC50 [1]: 8.19

COc1ccc(CNC(=O)Nc2cc3[nH]nc(-c4ccc(F)cc4)c3cn2)cc1OC [Example 33, 1-(3,4-dimethoxybenzyl)-3-(3-(4-fluorophenyl)-1H-pyrazolo[4,3-c]pyridin-6-yl)urea]
pIC50 [1]: 7.82

C[C@@H](NC(=O)Nc1cc2[nH]nc(C(=O)NCC(F)(F)CN3CCCC3)c2cn1)c1ccccc1 [Example 128]
pIC50 [1]: 7.72

Cc1cc(-c2n[nH]c3cc(NC(=O)NCCc4nc5ccccc5n4C)ncc23)ccn1 [Example 382]
pIC50 [1]: 8.20

Cc1cc(-c2n[nH]c3cc(NC(=O)NC4(c5ccncc5)CC4)ncc23)ccn1 [Example 356]
pIC50 [1]: 6.89

Cc1cc(-c2n[nH]c3cc(NC(=O)NCc4cccc(-c5ccccc5)c4)ncc23)ccn1 [Example 333]
pIC50 [1]: 8.47

COC[C@@H](NC(=O)Nc1cc2[nH]nc(-c3cnc(OC)nc3)c2cn1)c1ccccc1 [Example 314]
pIC50 [1]: 9.06

CCC(NC(=O)Nc1cc2[nH]nc(-c3ccnc(C)c3)c2cn1)c1ccccn1 (stereo not shown) [Example 347]
pIC50 [1]: 8.87

COc1cccc(F)c1CN1CCC[C@@H](NC(=O)Nc2cc3[nH]nc(-c4ccc5nn(C)cc5c4)c3cn2)C1 [Example 662]
pIC50 [1]: 9.03

Cc1cc(-c2n[nH]c3cc(NC(=O)N4CC(c5cccc(F)c5)C4)ncc23)ccn1 [Example 278]
pIC50 [1]: 7.36

Cc1cc(-c2n[nH]c3cc(NC(=O)NCC4CCCCC4)ncc23)ccn1 [Example 578]
pIC50 [1]: 9.25

Cc1cc(-c2n[nH]c3cc(NC(=O)NC(C)C4CCOC4)ncc23)ccn1 (stereo not shown) [Example 528]
pIC50 [1]: 7.90

Cn1cc(-c2n[nH]c3cc(NC(=O)NCC4CCC4)ncc23)cn1 [Example 590]
pIC50 [1]: 8.69

Cc1cc(-c2n[nH]c3cc(NC(=O)N[C@H]4CCOC4=O)ncc23)ccn1 [Example 456]
pIC50 [1]: 6.60

CNC(=O)c1n[nH]c2cc(NC(=O)N[C@H](C)c3ccccc3)ncc12 [Example 137]
pIC50 [1]: 8.34

COC[C@@H](NC(=O)Nc1cc2[nH]nc(-c3cc(C)on3)c2cn1)c1ccc(F)cc1 [Example 688]
pIC50 [1]: 8.27

O=C(NCC1CCC1)Nc1cc2[nH]nc(-c3ccnc(F)c3)c2cn1 [Example 591]
pIC50 [1]: 8.81

C[C@@H](NC(=O)Nc1cc2[nH]nc(-c3ccc(=O)n(C)c3)c2cn1)c1ccc(F)cc1 [Example 71, 1-[(1R)-1-(4-fluorophenyl)ethyl]-3-[3-(1-methyl-6-oxo-1,6-dihydropyridin-3-yl)-1H-pyrazolo[4,3-c]pyridin-6-yl]urea]
pIC50 [1]: 9.80 | pIC50 [2]: 8.77 to 9.70

COc1ncc(-c2n[nH]c3cc(NC(=O)N[C@@H]4CCCOc5ccccc54)ncc23)cn1 [Example 312]
pIC50 [1]: 9.12

CCOC(=O)CCc1n[nH]c2cc(NC(=O)NCc3ccccc3)ncc12 [Example 173, Ethyl 3-(6-(3-benzylureido)-1H-pyrazolo[4,3-c]pyridin-3-yl)propanoate]
pIC50 [1]: 7.40

CCNC(=O)c1n[nH]c2cc(NC(=O)N[C@H](C)c3ccccc3)ncc12 [Example 138]
pIC50 [1]: 8.28

C[C@@H](NC(=O)Nc1cc2[nH]nc(C(=O)NCc3nc4ccncc4[nH]3)c2cn1)c1ccccc1 [Example 117]
pIC50 [1]: 8.26

COc1cncc(-c2n[nH]c3cc(NC(=O)N[C@H](C)c4ccc(F)cc4)ncc23)n1 [Example 251]
pIC50 [1]: 8.28

Cc1cc(-c2n[nH]c3cc(NC(=O)NC(C)c4ncccc4C)ncc23)ccn1 (stereo not shown) [Example 349]
pIC50 [1]: 8.18

Cc1cc(-c2n[nH]c3cc(NC(=O)N[C@H](C)c4ccc(F)c(Cl)c4)ncc23)ccn1 [Example 69, 1-[(1R)-1-(3-chloro-4-fluorophenyl)ethyl]-3-[3-(2-methylpyridin-4-yl)-1H-pyrazolo[4,3-c]pyridin-6-yl]urea]
pIC50 [1]: 9.36 | pIC50 [2]: 8.77 to 9.70

CNC(=O)c1cc(F)ccc1CNC(=O)Nc1cc2[nH]nc(-c3ccnc(C)c3)c2cn1 [Example 518]
pIC50 [1]: 8.29

Cc1cc(-c2n[nH]c3cc(NC(=O)NCCO)ncc23)ccn1 [Example 573]
pIC50 [1]: 8.14

Cc1cc(-c2n[nH]c3cc(NC(=O)NC4CCc5[nH]ncc5C4)ncc23)ccn1 (stereo not shown) [Example 506]
pIC50 [1]: 9.09

Cc1cc(-c2n[nH]c3cc(NC(=O)N[C@H]4CN(C)C[C@@H]4C)ncc23)ccn1 [Example 205]
pIC50 [1]: 7.82

COc1ccc(-c2n[nH]c3cc(NC(=O)N[C@H](C)c4ccccc4)ncc23)cc1 [Example 676]
pIC50 [1]: 9.03

Cc1cc(-c2n[nH]c3cc(NC(=O)NCc4ncccc4Cl)ncc23)ccn1 [Example 448]
pIC50 [1]: 9.08

Cc1cc(-c2n[nH]c3cc(NC(=O)NC4CCc5cccnc5C4)ncc23)ccn1 (stereo not shown) [Example 505]
pIC50 [1]: 9.06

CC1CC(c2n[nH]c3cc(NC(=O)N[C@H](C)c4ccccc4)ncc23)=NO1 (stereo partly shown) [Example 687]
pIC50 [1]: 7.25

CC(C)CC(O)CNC(=O)c1n[nH]c2cc(NC(=O)N[C@H](C)c3ccccc3)ncc12 (stereo partly shown) [Example 135]
pIC50 [1]: 7.83

C[C@@H](NC(=O)Nc1cc2[nH]nc(-c3cnc(N(C)S(C)(=O)=O)nc3)c2cn1)c1ccccc1 [Example 292]
pIC50 [1]: 8.44

Cc1cc(-c2n[nH]c3cc(NC(=O)NCC4CCCO4)ncc23)ccn1 (stereo not shown) [Example 458]
pIC50 [1]: 8.07

Cc1cc(-c2n[nH]c3cc(NC(=O)NCc4nnc(-c5ccccc5)[nH]4)ncc23)ccn1 [Example 397]
pIC50 [1]: 7.32

CCOCc1n[nH]c2cc(NC(=O)N[C@H](C)c3ccccc3)ncc12 [Example 620, 1-[3-(ethoxymethyl)-1H-pyrazolo[4,3-c]pyridin-6-yl]-3-[(1R)-1-phenylethyl]urea]
pIC50 [1]: 6.86

Cc1cc(-c2n[nH]c3cc(NC(=O)NCc4nc(C)cs4)ncc23)ccn1 [Example 477]
pIC50 [1]: 8.58

Cc1cc(-c2n[nH]c3cc(NC(=O)N[C@@H]4[C@@H](c5ccccc5)CN(C)[C@@H]4C)ncc23)ccn1 [Example 568]
pIC50 [1]: 9.32

Cc1ccc(C(C)NC(=O)Nc2cc3[nH]nc(-c4ccnc(C)c4)c3cn2)nc1 (stereo not shown) [Example 339]
pIC50 [1]: 8.22

Cc1cc(-c2n[nH]c3cc(NC(=O)N[C@@H](C)c4ccncc4)ncc23)ccn1 [Example 235]
pIC50 [1]: 7.66

Cc1cc(-c2n[nH]c3cc(NC(=O)N[C@@H](CN)c4ccccc4)ncc23)ccn1 [Example 172]
pIC50 [1]: 6.61

Cc1cc(-c2n[nH]c3cc(NC(=O)N(C)C4CCCCC4)ncc23)ccn1 [Example 576]
pIC50 [1]: 5.61

C[C@@H](NC(=O)Nc1cc2[nH]nc(C#N)c2cn1)c1ccccc1 [Example 537, (R)-1-(3-cyano-1H-pyrazolo[4,3-c]pyridin-6-yl)-3-(1-phenylethyl)urea]
pIC50 [1]: 7.18

Cc1cc(-c2n[nH]c3cc(NC(=O)N[C@@H](C)c4ccc(F)c(F)c4)ncc23)ccn1 [Example 411]
pIC50 [1]: 7.47

Cc1cc(-c2n[nH]c3cc(NC(=O)NCC4COCCO4)ncc23)ccn1 (stereo not shown) [Example 464]
pIC50 [1]: 8.45

C[C@@H](NC(=O)Nc1cc2[nH]nc(CC#N)c2cn1)c1ccccc1 [Example 559, (R)-1-(3-(cyanomethyl)-1H-pyrazolo[4,3-c]pyridin-6-yl)-3-(1-phenylethyl)urea]
pIC50 [1]: 7.84

Cc1cc(-c2n[nH]c3cc(NC(=O)NCC4CCCCO4)ncc23)ccn1 (stereo not shown) [Example 469]
pIC50 [1]: 8.92
